In patent US8334293B2, “P70 S6 kinase inhibitor and EGFR inhibitor combination therapy” (Eli Lilly and Company, priority 2008, dated 2012):
Counter-ions that a name gives are not always drawn.

System: A549 human non-small-cell lung carcinoma cells
Assay: In vivo efficacy, A549 xenograft tumor volume
Design: species or system mice
Conditions: for pairwise comparison of log tumor volume AUC with the combination group / statistical difference (p) of log tumor volume AUC from the vehicle: 2-way ANOVA; for Tumor volume Mean: oral once daily, 2.5 mg/kg p70 S6 kinase inhibitor and/or 20 mg/kg erlotinib hydrochloride, in mm^3 (unit assumed); for Signif. (difference relative to vehicle group): tumor volume, repeated measures ANOVA; for log tumor volume AUC: tumor volume vs. time, trapezoid rule, vehicle 3.91
Method: A549 human non-small-cell lung carcinoma cells (5×10^6) are subcutaneously implanted into the flank of female C.B-17 (Fox Chase SCID) Model #CB17SC-M mice in 0.2 mL of matrigel. Approximately 1 week post-implantation when the tumor size is approximately 100 mg, mice are randomized into groups of 10 and dosed orally once daily at 2.5 mg/kg 4-[4-[4-(4-fluoro-3-trifluoromethyl-phenyl)-1-methyl-1H-imidazol-2-yl]-piperidin-1-yl]-1H-pyrazolo[3,4-d]pyrimidine (the p70 S6 kinase inhibitor; formulated in 35% PEG300/10% HPBCD/10% PS80 in H2O; concentration of inhibitor is 0.31 mg/mL) or 20 mg/kg erlotinib hydrochloride (formulated in NaCMC Tween 80; concentration of erlotinib hydrochloride is 2.5 mg/mL) or in combination (2.5 mg/kg of the p70 S6 kinase inhibitor and 20 mg/kg of erlotinib hydrochloride). The vehicle group is given the 2 vehicles (NaCMC Tween 80 and 35% PEG300/10% HPBCD/10% PS80 in H2O) in combination (0.1 mL of each). Treatment is continued for 38 days. Tumor volumes are measured using standard technique twice weekly and reported. Tumor size and body weight are recorded and analyzed bi-weekly. Tumor volume is estimated by using the formula: v=l×w^2×0.536 where l=larger of measured diameter and w=smaller of perpendicular diameter. The analysis uses SAS software version 8.2 (SAS Institutes Inc, Cary, N.C.) to analyze the log tumor volume data using a repeated measures ANOVA model with a spatial power covariance structure. For each time point taken, treatment groups are compared to the vehicle control group. Tumor volumes are given as means±standard errors for each treatment group determined from a repeated measures ANOVA on each group. (SAS for Mixed Models, 2nd Ed., Littell et al., 2006, SAS Institutes Inc, Cary, N.C.).
The tumor volume vs. time data for each animal is used to calculate an area under the curve (AUC) using the trapezoid rule. These AUCs are analyzed by 2-way ANOVA using a log transformation to equalize variance across groups. The two factors are the dose of 4-[4-[4-(4-fluoro-3-trifluoromethyl-phenyl)-1-methyl-1H-imidazol-2-yl]-piperidin-1-yl]-1H-pyrazolo[3,4-d]pyrimidine and the dose of erlotinib hydrochloride. The interaction effect between the factors is used to test for departure from additivity. (An Introduction to Statistical Methods and Data Analysis, R. Lyman Ott, 1993, Duxbury Press, Belmont, Calif.)
The results of this study are shown in the table below. n (the number of mice) is 9 for all the data, except for the data from day 17 onwards in the vehicle group and the data from day 38 onwards in the erlotinib hydrochloride group when it is 8. The data in the column headed Signif. indicates whether the difference relative to the vehicle group is statistically significant: NS=Not Significant (p>0.05); *=0.01<p≦0.05; **=0.001<p≦0.01; ***=p≦0.001.

Row | Structure (SMILES) | pairwise comparison of log tumor volume AUC with the combination group | statistical difference (p) of log tumor volume AUC from the vehicle | Tumor volume Mean (Day 7) | Signif. (difference relative to vehicle group) (Day 7) | Tumor volume Mean (Day 9) | Signif. (difference relative to vehicle group) (Day 9) | Tumor volume Mean (Day 14) | Signif. (difference relative to vehicle group) (Day 14) | Tumor volume Mean (Day 17) | Signif. (difference relative to vehicle group) (Day 17) | Tumor volume Mean (Day 21) | Signif. (difference relative to vehicle group) (Day 21) | Tumor volume Mean (Day 24) | Signif. (difference relative to vehicle group) (Day 24) | Tumor volume Mean (Day 28) | Signif. (difference relative to vehicle group) (Day 28) | Tumor volume Mean (Day 31) | Signif. (difference relative to vehicle group) (Day 31) | Tumor volume Mean (Day 35) | Signif. (difference relative to vehicle group) (Day 35) | also measured
1 | C#Cc1cccc(Nc2ncnc3cc(OCCOC)c(OCCOC)cc23)c1 [Erlotinib Hydrochloride, N-(3-ethynylphenyl)-6,7-bis-(2-methoxyethoxy)-4-quinazolinamine] | significantly different from the combination group | not significantly different from the vehicle | 39.5 | NS (NS=Not Significant (p>0.05)) | 51.5 | NS (NS=Not Significant (p>0.05)) | 61.8 | NS (NS=Not Significant (p>0.05)) | 74.8 | NS (NS=Not Significant (p>0.05)) | 91.1 | NS (NS=Not Significant (p>0.05)) | 101.6 | NS (NS=Not Significant (p>0.05)) | 139.9 | NS (NS=Not Significant (p>0.05)) | 141.8 | ** (**=0.001<p≦0.01) | 196.7 | ** (**=0.001<p≦0.01) | Tumor volume Mean (Day 38): 259.4; Signif. (difference relative to vehicle group) (Day 38): * (*=0.01<p≦0.05); Tumor volume Mean (Day 42): 260.1; Signif. (difference relative to vehicle group) (Day 42): ** (**=0.001<p≦0.01); Tumor volume Mean (Day 44): 373.8; Signif. (difference relative to vehicle group) (Day 44): * (*=0.01<p≦0.05); log tumor volume AUC: 3.76
2 | Cn1cc(-c2ccc(F)c(C(F)(F)F)c2)nc1C1CCN(c2ncnc3[nH]ncc23)CC1 [p70 S6 Kinase Inhibitor, 4-[4-[4-(4-fluoro-3-trifluoromethyl-phenyl)-1-methyl-1H-imidazol-2-yl]-piperidin-1-yl]-1H-pyrazolo[3,4-d]pyrimidine] | significantly different from the combination group | not significantly different from the vehicle | 33.8 | NS (NS=Not Significant (p>0.05)) | 51.9 | NS (NS=Not Significant (p>0.05)) | 56.2 | NS (NS=Not Significant (p>0.05)) | 75.9 | NS (NS=Not Significant (p>0.05)) | 94.1 | NS (NS=Not Significant (p>0.05)) | 113.5 | NS (NS=Not Significant (p>0.05)) | 196.6 | NS (NS=Not Significant (p>0.05)) | 231.3 | NS (NS=Not Significant (p>0.05)) | 302.4 | NS (NS=Not Significant (p>0.05)) | Tumor volume Mean (Day 38): 353.3; Signif. (difference relative to vehicle group) (Day 38): NS (NS=Not Significant (p>0.05)); Tumor volume Mean (Day 42): 425.5; Signif. (difference relative to vehicle group) (Day 42): NS (NS=Not Significant (p>0.05)); Tumor volume Mean (Day 44): 530.9; Signif. (difference relative to vehicle group) (Day 44): NS (NS=Not Significant (p>0.05)); log tumor volume AUC: 3.85
